Results published in US20170172958A1, “Compounds for Use in Controlling Body Fat” (priority 2014, published 2017).

How the values were obtained:
[1] = Body mass of mice on a high fat diet, BSO in drinking water, four weeks; assay type: in vivo, Male C3H mice; settings: BSO 30 mmol/L in drinking water, over four week treatment, control group showed significant weight gain
Description: (§1) Male C3H mice were used. Two cohorts of twelve mice were weaned and fed on a commercial standard diet (SDS Rat and Mouse No.3 Breeding diet (RM3)), containing 3.36 g% fat, 22.45 g % protein and 71.21 g % carbohydrate, till maturity. At 11 weeks of age, the standard diet was replaced with a high fat diet (Research Diets Inc, USA, D12492, containing 35 g % fat, from lard and soybean oil). One cohort was provided with BSO (30 mmol/L) in their drinking water, concomitant with the start of high fat feeding, while the other cohort (control group) received no treatment. […]
(§2) Phenotyping tests were performed according to the European Phenotyping Resource for Standardised Screens (EMPReSS) from EUMORPHIA standardized protocols, available at http://empress.har.mrc.ac.uk. Body mass was measured daily on scales calibrated to 0.01 g. Metabolic rate was measured using indirect calorimetry (Oxymax; Columbus Instruments) to determine oxygen consumption and carbon dioxide production. Body composition (% fat tissue and % lean tissue) was assessed utilizing an EchoMRl-100 quantitative magnetic resonance whole body composition analyzer (Echo Medical Systems, Houston, Tex.).

[2] = system: stearoyl-coenzymeA desaturase (SCD); test: SCD activity indices (SCD16, SCD18) from plasma fatty acid ratios; assay type: in vivo, Male C3H mice; settings: vs control
Description: Compounds of Formula I inhibit SCD activity, which can be measured using one or more activity indices. These can be based on measurements of different fatty acid components of the blood plasma or serum.
Activity indices are based on the amount of monounsaturated fatty acids relative to their respective […] precursors. The most commonly used SCD activity indices are derived from the ratio of palmitoleic to palmitic acids (“SCD16 index”), and the ratio of oleic to stearic acid (“SCD18 index”). These ratios are lowered with increased inhibition of SCD. SCD indices can either be calculated from plasma/serum free fatty acids, or from the total fatty acid pool, which also includes esterified fatty acids (e.g. triglycerides and phospholipids). Indices calculated from free fatty acid concentrations reflect SCD activity in adipose tissue, while those from total fatty acids reflect SCD activity in liver (Warensjo et al, Lipids Health Dis 2009, 8:37). Both in rodents and humans, SCD indices are associated with fat mass.
(§3) Male C3H mice were used. Two cohorts of twelve mice were weaned and fed on a commercial standard diet (SDS Rat and Mouse No.3 Breeding diet (RM3)), containing 3.36 g% fat, 22.45 g % protein and 71.21 g % carbohydrate, till maturity. At 11 weeks of age, the standard diet was replaced with a high fat diet (Research Diets Inc, USA, D12492, containing 35 g % fat, from lard and soybean oil). One cohort was provided with BSO (30 mmol/L) in their drinking water, concomitant with the start of high fat feeding, while the other cohort (control group) received no treatment. The mice were kept in accordance with UK Home Office welfare guidelines and project license restrictions under controlled light (12-h light and 12-h dark cycle; dark 7 p.m.-7 a.m.), temperature (21° C.±2° C.) and humidity (55%±10%) conditions. They had free access to water (10 ppm chlorine) and food throughout the experiment.

[3] = Plasma amino acids and sulphur compounds (tCys, tHcy, glutathione, taurine); assay type: in vivo, Male C3H mice
Description: Further, SCD activity increases with high tCys concentration in both rodents and humans. tCys refers to all natural forms of circulating cysteine, such as cysteine (thiol form), cystine (disulphide form), cysteine-mixed disulphides with other thiol compounds, and protein-bound cysteine not in peptide linkage. tCys in the plasma or serum can be measured using techniques described, for example, in WO2010/010383.
as §3

adipocytes = settings: Vigilanza et al; cited from earlier work
[4] = Fasting plasma glucose, insulin and HOMA-IR, eight week BSO study; assay type: in vivo, Male C3H mice; settings: after six weeks of BSO treatment, vs control
Description: as §3
Thus, BSO-treated mice had lower glucose plasma levels, and lower insulin concentrations compared to the control. […] The HOMA IR index is a calculation of insulin resistance based on fasting glucose and insulin plasma levels, the calculation being known to those skilled in the art. Leptin plasma levels are also shown.
(§4) For the results presented in FIGS. 23 and 24, the experiments were carried out using the same conditions as described above (i.e. same mouse strain, mouse age, diet, and experimental design) except that the mice were treated for eight weeks with BSO, and the plasma for insulin, glucose, and leptin analysis was drawn after a 6-hour fast, after six weeks of BSO treatment.

liver cells = test: Liver histology, fat vacuolation score; assay type: in vivo, Male C3H mice; settings: high fat diet, vs control
Description: as §3

[5] = Findeisen et al, cited from earlier work
[6] = Plasma and liver reduced and total glutathione, eight week BSO study; assay type: in vivo, Male C3H mice; settings: eight weeks BSO, vs control
Description: as §3, §4

[7] = rats, Ogihara et al; cited from earlier work
[8] = Plasma fatty acid concentrations (free and total); assay type: in vivo, Male C3H mice; settings: vs control
Description: as §3

[9] = Plasma ALT, lipid components, glucose and glycerol; assay type: in vivo, Male C3H mice; settings: vs control
Description: as §3

[10] = Metabolic rate by indirect calorimetry (Oxymax); assay type: in vivo, Male C3H mice; settings: dark and light phases, per unit weight, vs control, P<0.001
Description: as §1, §2

[11] = Body composition (EchoMRI) and dissected fat depots of mice on a high fat diet; assay type: in vivo, Male C3H mice
Description: as §3, §2

[12] = dissected mice, vs control, P<0.001

In the case of `CCCCS(=N)(=O)CCC(N)C(=O)O` (centres unmarked) [BSO, buthionine sulfoximine], the body weight [1] is reported as “reduction in body weight”, the “oleic acid to stearic acid ratio (SCD18 index)” value ([2]; free fatty acids in plasma) is reported as “lower” and the “ratio of palmitoleic acid to palmitic acid (SCD16 index)” value ([2]; free fatty acids in plasma) is reported as “lower”. For the same compound, the “unsaturated/saturated fatty acid ratios (SCD16 and SCD18 activity indices)” value ([2]; total fatty acid concentrations in plasma) was “lower”, the “concentration of amino acids in the plasma” value ([3]; difference between BSO and control cohorts) was “little difference” and the plasma glutathione concentrations ([3]; four week study, vs control) was “decrease”. For the same compound, the “total homocysteine (tHcy) plasma concentrations” value ([3]; vs control) was “larger concentrations”, the plasma taurine concentrations ([3]; vs control cohort) was “substantially lower” and the “plasma tCys concentrations” value ([3]; vs controls, all measured forms of cysteine) was “significantly and substantially lower”. For the same compound, the adipogenesis (adipocytes) was “increased adipogenesis”, the intracellular glutathione (adipocytes) was “decreases” and the triglycerides in adipocytes (adipocytes) was “triglyceride accumulation”. The glucose plasma levels ([4]; 6-hour fast) was “lower”, the insulin plasma concentrations ([4]; 6-hour fast) was “lower” and the “HOMA insulin-resistance (IR) index” value ([4]; from fasting glucose and insulin) was “significantly lower”. The liver fat vacuolation (liver cells) was “absent”, the insulin sensitivity [5] was “preserve insulin sensitivity” and the diet-induced obesity ([5]; mice) was “reduce”. For the same compound, the energy expenditure ([5]; mice) was “increase”, the locomotor activity ([5]; mice) was “increase” and the “liver rGSH levels” value [6] was “similar”. For the same compound, the “liver rGSH/tGSH ratio” value [6] was “higher”, the “liver tGSH levels” value [6] was “lower” and the “plasma rGSH/tGSH ratio” value [6] was “similar”. The “plasma reduced glutathione (rGSH)” value [6] was “lower”, the “plasma total glutathione (tGSH)” value [6] was “lower” and the insulin resistance [7] was “induces insulin resistance”. For the same compound, the “fatty acid plasma concentrations, a number of C14 to C22 fatty acids” value ([8]; free and total fatty acids) was “lower”, the “free palmitic acid plasma concentration” value [8] was “lower” and the “free palmitoleic acid plasma concentration” value [8] was “lower”. The plasma glucose ([9]; four week study) was “decreased”, the plasma glycerol [9] was “decreased” and the “plasma high density lipoprotein (HDL)” value [9] was “lower”. For the same compound, the “plasma low density lipoprotein (LDL)” value [9] was “lower”, the “plasma non-esterified fatty acids” value [9] was “lower” and the plasma total cholesterol [9] was “lower”. For the same compound, the plasma triglycerides ([9]; lower, particularly so) was “lower”, the “plasma ALT concentrations” value ([9]; marker of NAFLD) was “substantially lower” and the carbon dioxide production [10] was “greater”. The oxygen consumption [10] was “significantly greater”, the “amount of brown fat mass” value ([11]; dissected mice, vs control) was “similar” and the “abdominal fat as a percentage of total body weight” value [11, 12] was “significantly lower”. The “quantity of abdominal fat in grams” value [11, 12] was “significantly lower”, the lean mass ([11]; echo MRI, difference between BSO and control cohorts) was “only a relatively small difference” and the “quantity of body fat” value ([11]; echo MRI, vs control mice, high fat diet) was “substantially lower”. The “brown fat as a percentage of total fat mass” value ([11]; vs control, P<0.05) was “higher” and the “abdominal fat mass as a percentage of total fat mass” value ([11]; vs control, P=0.055) was “trend towards decrease”.
